Test results: PubChem BioAssay (NCI)
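All cell lines were grown in 96-well plates and treated with compound for 48 hours. TGI marks complete inhibition of growth.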

What was measured:
Experiment in all cases: NCI anticancer screen, dose series, 48 h
[1] = test system: SF-295 CNS
[2] = test system: COLO 205 colon
[3] = test system: OVCAR-5 ovarian
[4] = test system: HCT-116 colon
[5] = test system: A549 NSCLC
[6] = test system: UACC-62 melanoma
[7] = test system: NCI-H522 lung
[8] = test system: NCI-H460 lung
[9] = test system: CCRF-CEM leukemia
[10] = test system: SN12C renal

Cc1ccsc1C(=S)Nc1ccc(Cl)c(C(=O)OC(C(C)C)C(C)C)c1
TGI [1]: > 100 µM
TGI [2]: 26.1 µM
TGI [3]: > 100 µM
TGI [4]: 75.5 µM
TGI [5]: > 100 µM
TGI [6]: > 100 µM
TGI [7]: 81.8 µM
TGI [8]: > 100 µM
TGI [9]: > 100 µM
TGI [10]: > 100 µM

COP(=O)(CC(=O)C1OC(OCc2ccccc2)C(OCc2ccccc2)C(OCc2ccccc2)C1OCc1ccccc1)OC (stereo not drawn)
TGI [1]: > 100 µM
TGI [2]: 15 µM
TGI [3]: > 100 µM
TGI [4]: > 100 µM
TGI [5]: > 100 µM
TGI [6]: 17.8 µM
TGI [7]: > 100 µM
TGI [8]: 38.4 µM
TGI [9]: > 100 µM
TGI [10]: 11.2 µM

COc1cc(OC)c(C2c3cc4c(cc3OC(N3CCOCC3)C2C)OCO4)c(OC)c1 (stereo not drawn)
TGI [1]: > 100 µM
TGI [2]: > 100 µM
TGI [3]: > 100 µM
TGI [4]: > 100 µM
TGI [5]: > 100 µM
TGI [6]: > 100 µM
TGI [7]: > 100 µM
TGI [8]: > 100 µM
TGI [9]: > 100 µM
TGI [10]: > 100 µM

COc1cc2c(cc1OCCCOc1cc3c(cc1OC)C(=O)N1CCC[C@H]1CN3)N=C[C@@H]1CCCN1C2=O
TGI [1]: 0.671 µM
TGI [3]: 1.32 µM
TGI [5]: > 28.1 µM
TGI [9]: > 100 µM
TGI [10]: > 33 µM

CN1c2ccccc2C(=O)NC12CCN(CC1COc3ccccc3O1)CC2 (stereo not drawn)
TGI [1]: > 100 µM
TGI [2]: > 100 µM
TGI [3]: > 100 µM
TGI [4]: > 100 µM
TGI [5]: > 100 µM
TGI [6]: > 100 µM
TGI [8]: > 100 µM
TGI [9]: > 100 µM

O=C(c1ccccc1)[C@H]1Nc2cnccc2C2c3ccccc3CC21 (stereo partly drawn)
TGI [1]: 48.3 µM
TGI [2]: 42.9 µM
TGI [3]: 74.1 µM
TGI [4]: > 38.4 µM
TGI [5]: 74.5 µM
TGI [6]: > 58.8 µM
TGI [7]: 8.56 µM
TGI [8]: 33.9 µM
TGI [9]: 17.8 µM
TGI [10]: 31.8 µM

FC(F)=C(c1ccc(-c2ccc(Cl)cc2)cc1)C(F)(F)F
TGI [1]: 56.7 µM
TGI [2]: 36.1 µM
TGI [3]: 31.3 µM
TGI [4]: 32 µM
TGI [5]: 37.4 µM
TGI [6]: 38.6 µM
TGI [7]: 36.6 µM
TGI [8]: 33.7 µM
TGI [9]: 62.1 µM
TGI [10]: 45.4 µM

CCN(C(=O)N[C@H](C(=O)N[C@@H](C)C(=O)OC)C(C)C)c1ccccc1
TGI [1]: > 100 µM
TGI [2]: 43.4 µM
TGI [3]: > 100 µM
TGI [4]: 68.6 µM
TGI [5]: > 100 µM
TGI [6]: 55.7 µM
TGI [7]: 49.5 µM
TGI [8]: 66.2 µM
TGI [9]: > 100 µM
TGI [10]: > 100 µM

Cc1ccc2c(c1)C(=O)/C(=C\c1ccc(Cl)cc1)CCS2(=O)=O
TGI [1]: 17.9 µM
TGI [2]: 15.6 µM
TGI [3]: > 42.5 µM
TGI [4]: 3.51 µM
TGI [5]: > 58.8 µM
TGI [6]: 10.2 µM
TGI [7]: 3.28 µM
TGI [8]: 5.02 µM
TGI [9]: > 20.8 µM
TGI [10]: 8.37 µM

CCOP(=O)(OCC)c1cc(-c2ccccc2)ccc1N
TGI [1]: > 100 µM
TGI [2]: > 100 µM
TGI [3]: > 100 µM
TGI [4]: > 100 µM
TGI [5]: > 100 µM
TGI [6]: > 100 µM
TGI [7]: > 100 µM
TGI [8]: > 100 µM
TGI [9]: > 100 µM

O=S1(=O)c2ccccc2NC(=S)N1c1ccccc1
TGI [1]: > 100 µM
TGI [2]: > 100 µM
TGI [3]: > 100 µM
TGI [4]: > 100 µM
TGI [5]: > 100 µM
TGI [6]: > 100 µM
TGI [7]: > 73.3 µM
TGI [8]: > 100 µM
TGI [9]: > 100 µM
TGI [10]: > 100 µM

Cc1ccc(C(=O)c2[nH]c(Nc3cc(C)ccn3)c(C(=S)Nc3ccccc3)c2N)cc1
TGI [1]: > 100 µM
TGI [2]: > 100 µM
TGI [3]: > 100 µM
TGI [4]: > 100 µM
TGI [5]: > 100 µM
TGI [6]: > 100 µM
TGI [7]: > 100 µM
TGI [8]: > 100 µM
TGI [9]: > 100 µM
TGI [10]: > 100 µM

C=C1CC2C(=O)N(c3ccccc3)C(=O)C2CC1n1[nH]c(=O)n(Cc2ccccc2)c1=O (stereo not drawn)
TGI [1]: > 100 µM
TGI [2]: > 100 µM
TGI [3]: > 100 µM
TGI [4]: > 100 µM
TGI [5]: > 100 µM
TGI [6]: > 100 µM
TGI [7]: > 100 µM
TGI [8]: > 100 µM
TGI [9]: > 100 µM
TGI [10]: > 100 µM

COc1ccc(N2C(=O)C3c4[nH]c5ccccc5c4C4C(C)CCCC4C3C2=O)cc1 (stereo not drawn)
TGI [1]: > 100 µM
TGI [2]: > 100 µM
TGI [3]: > 100 µM
TGI [4]: > 100 µM
TGI [5]: > 100 µM
TGI [6]: > 100 µM
TGI [7]: > 56.3 µM
TGI [8]: > 100 µM
TGI [9]: > 100 µM
TGI [10]: > 100 µM

COC(=O)C(=O)C(C(=O)C(=O)Nc1cc([N+](=O)[O-])ccc1C#N)c1nc2ccccc2[nH]c1=O (stereo not drawn)
TGI [1]: > 100 µM
TGI [2]: > 100 µM
TGI [4]: > 100 µM
TGI [5]: > 100 µM
TGI [6]: > 100 µM
TGI [7]: > 100 µM
TGI [8]: > 100 µM
TGI [9]: > 100 µM
TGI [10]: > 100 µM

Cc1cn(C2CC(OC(c3ccccc3)(c3ccccc3)c3ccccc3)C(COC(c3ccccc3)(c3ccccc3)c3ccccc3)O2)c(=O)[nH]c1=O (stereo not drawn)
TGI [1]: > 100 µM
TGI [2]: > 100 µM
TGI [3]: > 100 µM
TGI [4]: > 100 µM
TGI [5]: > 100 µM
TGI [6]: > 100 µM
TGI [8]: > 100 µM
TGI [9]: > 100 µM
TGI [10]: > 100 µM

CCOC(=O)c1ccc(C(=O)/C(C(=O)OC(C)(C)C)=C2\CCCN2C)n1C
TGI [1]: > 100 µM
TGI [2]: > 100 µM
TGI [3]: > 100 µM
TGI [4]: > 100 µM
TGI [5]: > 100 µM
TGI [6]: > 100 µM
TGI [8]: > 100 µM
TGI [9]: > 100 µM
TGI [10]: > 100 µM

CC1=NC(C)(C)N(O)C1(C)C
TGI [1]: > 100 µM
TGI [2]: > 100 µM
TGI [3]: > 100 µM
TGI [4]: > 100 µM
TGI [5]: > 100 µM
TGI [6]: > 100 µM
TGI [7]: > 100 µM
TGI [8]: > 100 µM
TGI [9]: > 100 µM
TGI [10]: > 100 µM

COC(=O)C(CCSC)NC(=O)CSc1nnc(COc2ccc(Cl)cc2)n1-c1ccccc1 (stereo not drawn)
TGI [1]: 32.3 µM
TGI [2]: 34.9 µM
TGI [3]: 38.7 µM
TGI [4]: 30.7 µM
TGI [5]: > 70.8 µM
TGI [6]: 32.7 µM
TGI [7]: 18.1 µM
TGI [8]: 29.8 µM
TGI [9]: > 66.1 µM
TGI [10]: 33.1 µM

Cc1ccc(-n2cc(-c3ccc(Cl)cc3)c3c2N=CN2NC(c4ccco4)=NC32)cc1 (stereo not drawn)
TGI [1]: 27.8 µM
TGI [2]: > 100 µM
TGI [3]: > 100 µM
TGI [4]: 31.8 µM
TGI [5]: > 100 µM
TGI [6]: 31.5 µM
TGI [7]: 90 µM
TGI [8]: > 100 µM
TGI [9]: > 100 µM
TGI [10]: > 100 µM

O=CN(O)CC(=O)O
TGI [1]: > 100 µM
TGI [2]: > 100 µM
TGI [3]: > 100 µM
TGI [4]: > 100 µM
TGI [5]: > 100 µM
TGI [6]: > 100 µM
TGI [8]: > 100 µM
TGI [9]: > 100 µM
TGI [10]: > 100 µM
